Columns and labels:
[1] = tested on: T47D, TYS and TDG cells; assay: MTS proliferation assay (4 days), T47D, TYS and TDG; type: cell-based, human
Description: FIG. 30 compares the ability of BHPI and test compounds to inhibit proliferation of T47D, TYS and TDG cells. T47D cells were in medium containing 10 FBS (which contains estrogen), TYS-4 and TDG-1 cells were in medium containing 10% cd-FBS (estrogen depleted). Cells are plated at 2,000 cells/well in 96 well plates. After 24 hours in medium containing FBS or charcoal-dextran treated FBS (depleted of endogenous estrogens), the indicated concentration of each compound (in DMSO at 1/1000th of the volume of medium) was added. After 2 days the medium was changed, and the compounds were added again. After 2 additional days (4 days total) MTS assays are used to evaluate cell proliferation. (n=6 ±S.E.M.).

[2] = tested on: ERα positive and ERα negative cells; type: cell-based
Description: ALAMAR BLUE RAPTINAL ASSAYS: Cells were plated at 4,000-10,000 cells/well (96 well plate), usually in 50 μl of medium. After about 18 hours, an additional 50 μl of medium containing 2× the desired final concentration of the test compound (C-105) was added to each well. After 24 hours Alamar Blue reagent was added and fluorescence in the wells was read (BMG PheraStar or Molecular Devices Spectra Max M3 Microplate Reader). % relative death was determined by setting the reading for raptinal-treated cells to 100% dead cells and the reading for vehicle-treated cells to 0% dead cells.
ERα positive MCF-7 breast cancer, Caov-3 ovarian cancer and ECC-1 uterine cancer cells and ERα negative MDA-MB-231 human breast cancer cells and HeLa, human cervical carcinoma cells and MCF-10A human mammary epithelial cells were plated at 10,000 cells/well (96 well plate) in 50 μl of medium. After about 18 hours, an additional 50 μl of medium containing 2× the desired final concentration of the test compound (C-105) was added to each well (final vol. 100 μl/well). After 24 hours Alamar Blue reagent was added and fluorescence in the wells was read after 1 hour (BMG PheraStar Microplate Reader). % relative death was determined by setting the reading for 10,000 nM raptinal-treated cells to 100% dead cells and the reading for vehicle-treated cells to 0% dead cells. (Data is the average ±SEM of 3 independent experiments with 5 biological replicates for each sample within each independent experiment.)
FIG. 3 compares the ability of (±)-105 to kill ERα positive and ERα negative cells. The dose response tests the ability of (±)-105 to rapidly kill ERα positive and ERα negative cells. […] After 24 hours Alamar Blue reagent was added and fluorescence in the wells was read. % relative death was determined by setting the reading for […] raptinal-treated cells to 100% dead cells and the reading for vehicle-treated cells to 0% dead cells. […]

[3] = tested on: intracellular ATP levels in TYS-Luc cells; assay: Intracellular ATP levels, TYS-Luc cells; type: cell-based, human; conditions: 1,000 nM
Description: TYS-Luc cells were maintained DMSO vehicle (Veh), 1,000 nM BHPI, 1,000 nM (−)-105 with and without 10,000 nM thapsigargin (THG) for the indicated times. ATP levels were determines using a kit and relative ATP levels were from a standard curve. […] (n=3±SEM).

[4] = tested on: MDG-luc. cells; assay: Metastatic model, MDG-luc cells injected into the tail-vein; type: in vivo, mouse; conditions: daily dosing
Description: (§1) FIG. 41. SERK-F6 eradicates mutant ERα primary and metastatic breast cancer. a-c, TYS-luc. orthotopic tumors were established in NSG ovariectomized mice (no E2 pellet, 60 days to establish) and dosed daily as indicated (n=5-6). b, representative examples of bioluminescence images of SERK-F6 treated mice (7 days). d,e, TDG-luc. orthotopic tumors were established in NSG ovariectomized mice (no E2 pellet, 120 days to establish) and dosed daily as indicated (n=4-5). e, Bioluminescence image of SERK-F6 treated mouse with TDG-luc. tumor burden after 7 days. f, MYS-luc. orthotopic tumors were established in NSG ovariectomized mice (no E2 pellet, 45 days to establish) and dosed daily as indicated (n=4-5). g, MDG-luc. orthotopic tumors were established in NSG ovariectomized mice (no E2 pellet, 45 days to establish) and dosed daily as indicated (n=4-5). h, Metastatic model with MDG-luc. cells injected into the tail-vein of NSG ovariectomized mice (no E2 pellet, 1.5 months to establish) and mice were dosed daily as indicated (n=4-5).

[5] = tested on: TYD-Luc cells (T47DERαD538G-luciferase human breast cancer cells) tumors; assay: Orthotopic TDG-Luc mouse xenograft, bioluminescent imaging; type: in vivo
Description: as §1
FIG. 4A illustrates how IC50's for cell death were determined. 4B tests the ability BHPI, (−)-105, and 01-15 to kill. […] Large orthotopic breast tumors of TYD-Luc cells (T47DERαD538G-luciferase human breast cancer cells) were allowed to form for 4 months in immune suppressed NSG mice. […]

[6] = tested on: parental T47D cells; assay: MTS growth assay, parental T47D cells; type: cell-based, human; conditions: 100 nM and 1 μM; 4 days
Description: ERα containing T47D human breast cancer cells able to survive in 1 μM BHPI were selected by clonal outgrowth. The effect of 100 nM and 1 μM BHPI and (−)-105 on growth of the (BHPI-sensitive) parental T47D cells and partially BHPI-resistant T47D clones 1,3,8, and 11 was evaluated. 4,000 cells/well were plated. Cell number was determined by MTS assay from a standard curve of absorbance versus cell number. […] Thus, in 4 days (−)-105 killed some, but not all, of the resistant cells.

| Compound | effectiveness in killing compared with BHPI [1] | selectivity for ERα positive cancer cell lines ([2]; 0-10,000 nM, 24 hours) | effect in ERα negative cell lines ([2]; concentrations more than 10 times higher than those that kill ERα positive cells) | intracellular ATP levels [3] | metastatic tumor burden [4] | efficacy on oral administration ([5]; 40 mg/kg oral gavage, 3 days) | effect on D538G mutant tumors (TDG cell line) ([5]; daily dosing) | effect on growth / cell number [6] |
| --- | --- | --- | --- | --- | --- | --- | --- | --- |
| O=C1Nc2c(C(F)(F)F)cccc2C1(c1ccc(O)cc1)c1ccc(OC(F)(F)F)cc1 (racemic) [(±)-105, 3-(4-hydroxyphenyl)-3-(4-(trifluoromethoxy)phenyl)-7-(trifluoromethyl)indolin-2-one] | more effective than BHPI | selective for ERα positive cancer cell lines | no effect | – | – | – | – | – |
| O=C1Nc2c(C(F)(F)F)cccc2C1(c1ccc(O)cc1)c1ccc(OC(F)(F)F)cc1 (single isomer, unassigned; (-)) [(−)-105, 3-(4-hydroxyphenyl)-3-(4-(trifluoromethoxy)phenyl)-7-(trifluoromethyl)indolin-2-one] | – | – | – | reduces intracellular ATP levels | eradicates metastatic tumor burden | effective when administered orally | destruction of D538G mutant tumors | killed all the T47D cells |

Source: US11046647B2, “Activators of the unfolded protein response” (The Board of Trustees of the University of Illinois, priority 2018, dated 2021)
